Values of other authors in patent US20030040459A1, “Cleaning compositions” (Unilever Home & Pesonal Care USA, priority 2001, published 2003).

Settings: for Water Solubility (g/100 g): at 20° C.

| Water Solubility (grams/100 grams water) (grams of solid to form a saturated solution in 100 grams of deionised water at 20° C.) | SMILES | Water Solubility (g/100 g) |
| --- | --- | --- |
|  | O=P(O)(O)OP(=O)(O)OP(=O)(O)O [Sodium tripolyphosphate anhydrous] | 15 g/100 g |
|  | O=BO[O-].[Na+] [Sodium perborate anhydrous] | 3.7 g/100 g |
| >100 grams/100 grams water | NC(N)=O [Urea] |  |
